Measured values from patent publication US8455485B2, “Pyrazolo pyridine derivatives as NADPH oxidase inhibitors” (Genkyotex SA, priority 2008, dated 2013).

Tests used:
Format in all cases: cell-based, human
NOX activity = experiment: Amplex Red measurement of extracellular hydrogen peroxide (NOX activity) using DMSO-differentiated HL60 cells; settings: for Inhibition (%) of NOX activity: Amplex red, DMSO-differentiated HL60 cells, compound concentration not stated
Method: Human acute myeloid leukemia cell line HL-60 was cultured in RPMI 1640 (Invitrogen) supplemented with 10% heat-inactivated calf serum, 2 mM glutamine, 100 U/mL penicillin (Sigma), and 100 μg streptomycin (Sigma) at 37° C. under a humidified atmosphere of 5% CO2. HL60 differentiation to the neutrophil phenotype was triggered by adding Me2SO (final concentration 1.25% v/v for 6 days) to the culture medium.
Extracellular hydrogen peroxide was measured using Amplex UltraRed (Molecular Probes). Cells were trypsinized (1× Trypsin-EDTA), collected by centrifugation, and resuspended in HBSS supplemented with 1% glucose. Cells were seeded into black 96-well plates at a density of 50′000 cells in 200 μl testing buffer (HBSS 1% glucose containing 0.005 U/mL horseradish peroxidase (Roche) and 50 μM Amplex Red in the presence or absence of compounds according to the invention. As a control, DPI was included at a final concentration of 10 μM The plates were placed in the fluorescent Optima Fluorescent plate reader and kept at 37° C. during 20 min Fluorescence was measured for […] with excitation and emission wavelengths of 544 nm and 590 nm respectively. NOX activities were expressed as % of the activity in control cells. Residual activity of DPI-treated cells was usually <10%.
The Table 2 below summarizes the percentage of inhibition of NOX activity as measured by Amplex red using DMSO-differentiated HL60 cells as described above: […]

NOX activities [1] = experiment: H2DCF-DA (DCF fluorescence) ROS measurement in TGF-β stimulated HUVEC
Method: HUVEC are cultured in endothelial basal medium supplemented with hydrocortisone (1 μg/mL, CalbioChem), bovine brain extract (12 μg/mL), gentamicin (50 μg/mL, CalbioChem), amphotericin B (50 ng/mL, CalBioChem EGF (10 ng/mL, and 10% FCS until the fourth passage. When the fifth passage was started, cells were cultured with a lower concentration of FCS (2%) in the absence of EGF, if not indicated otherwise. All experiments were done with cells of the fifth passage. The cells were incubated with OxLDL (oxidized low-density lipoprotein) or its buffer as control for 24 h, before detection of O2^− formation.
HUVEC were plated on coverslips and made quiescent overnight in 0.5% BSA before stimulation with TGF-β. Cells were loaded for 10 minutes with 5 μM CM-H2DCFDA in phenol-red-free medium in the dark and then treated with TGF-β (R&D Systems) in the presence or absence of compounds according to the invention. Cells were then visualized by immunofluorescence microscopy after fixation and staining of the nuclei with DAPI or examined live using confocal microscopy. DCF fluorescence was visualized at an excitation wavelength of 488 nm and emission at 515 to 540 nm. […] For calculation, the absorbance at […] was normalized to absorbance at […] for each individual well. […] NOX activities were expressed as % of the activity in control cells. […]

NOX activities [2] = experiment: Nitroblue tetrazolium (NBT) test of intracellular and extracellular superoxide in cells; settings: DPI at a final concentration of 10 μM
Method: Intracellular and extracellular superoxide was measured by a colorimetric technique using a quantitative nitroblue tetrazolium (NBT) test. SOD-inhibitable conversion of NBT to formazan, a fine blue precipitate, in the presence of superoxide anion was measured using Fluostar Optima spectrometer (BMG labtech). Following incubation with appropriate stimuli, cells were trypsinized (1× Trypsin-EDTA), collected by centrifugation, and washed with PBS to remove medium. 5×10^5 cells were plated on 48-well plates and incubated in Hank's balanced salt solution containing 0.5 mg/mL NBT with or without 800 U/mL SOD in the presence or absence of compounds according to the invention. As a control, DPI was included at a final concentration of 10 μM. After 2.5 h, cells were fixed and washed with methanol to remove non reduced NBT. The reduced formazan was then dissolved in 230 μl of 2M potassium hydroxide and in 280 μl of dimethylsulfoxide. The absorption was measured at 630 nm. For calculation, the absorbance at 630 nm was normalized for each individual well. The mean of the four blank values was subtracted from each corrected value for each time point. NOX activities were expressed as % of the activity in control cells. Residual activity of DPI-treated cells was usually <10%.

NOX activities [3] = experiment: Chemiluminescence (luminol) measurement of ROS in cells
Method: ROS was measured using the chemiluminescent probe luminol. Cells were cultured and plated as for Amplex Red except that the Amplex Red agent was replaced by 10 μg/mL luminol (Sigma 09235). Light emission was recorded continuously at 37° C. for 60 minutes using the luminescence function of the FluoStar Optima fluorescent plate reader. The mean of the four blank values was subtracted from each corrected value for each time point. NOX activities were expressed as % of the activity in control cells. Residual activity of DPI-treated cells was usually <10%.

SMILES: c1ccc([I+]c2ccccc2)cc1 [DPI, Diphenyl-iodonium]
- Residual activity of DPI-treated cells (NOX activity as % of the activity in control cells) (NOX activity; Amplex Red, DPI at a final concentration of 10 μM): < 10%
- Residual activity of DPI-treated cells (NOX activity as % of the activity in control cells) (NOX activities [1]): < 10%
- Residual activity of DPI-treated cells (NOX activity as % of the activity in control cells) (NOX activities [2]): < 10%
- Residual activity of DPI-treated cells (NOX activity as % of the activity in control cells) (NOX activities [3]): < 10%

SMILES: CCN(CC)CCCn1c(COCc2ccccc2)c2c(=O)n(-c3ccccc3Cl)[nH]c2cc1=O [Compound 102, 4-[(benzyloxy)methyl]-2-(2-chlorophenyl)-5-[3-(diethylamino)propyl]-1H-pyrazolo[4,3-c] pyridine-3,6(2H,5H)-dione]
- Inhibition (%) of NOX activity (NOX activity): 80%

SMILES: CCCCc1c2c(=O)n(-c3ccc(F)cc3Cl)[nH]c2cc(=O)n1CCc1ccccn1 [Compound 10, 4-butyl-2-(2-chloro-4-fluorophenyl)-5-(2-pyridin-2-ylethyl)-1H-pyrazolo[4,3-c]pyridine-3,6(2H,5H)-dione]
- Inhibition (%) of NOX activity (NOX activity): 78%

SMILES: CCOCCCn1c(CN2CCCC2)c2c(=O)n(-c3ccc(F)cc3Cl)[nH]c2cc1=O [Compound 45, 2-(2-chloro-4-fluoro-phenyl)-5-(3-ethoxypropyl)-4-(pyrrolidin-1-ylmethyl)-1H-pyrazolo[4,3-c] pyridine-3,6(2H,5H)-dione]
- Inhibition (%) of NOX activity (NOX activity): 86%

SMILES: CCOCCCn1c(CN2CCCC2)c2c(=O)n(Cc3ccccc3)[nH]c2cc1=O [Compound 47, 2-benzyl-5-(3-ethoxypropyl)-4-(pyrrolidin-1-ylmethyl)-1H-pyrazolo[4,3-c]pyridine-3,6(2H,5H)-dione]
- Inhibition (%) of NOX activity (NOX activity): 89%

SMILES: CCCCc1c2c(=O)n(C)[nH]c2cc(=O)n1Cc1ccccn1 [Compound 3, 4-butyl-2-methyl-5-(pyridin-2-ylmethyl)-1H-pyrazolo[4,3-c]pyridine-3,6(2H,5H)-dione]
- Inhibition (%) of NOX activity (NOX activity): 84%

SMILES: Cn1c(CCCN2CCc3ccccc32)c2c(=O)n(-c3ccccc3Cl)[nH]c2cc1=O [Compound 123, 2-(2-chloro-phenyl)-4-[3-(2,3-dihydro-1H-indol-1-yl)propyl]-5-methyl-1H-pyrazolo[4,3-c] pyridine-3,6(2H,5H)-dione]
- Inhibition (%) of NOX activity (NOX activity): 90%
